Results on 21 compounds are retold here after ChEMBL document CHEMBL1795262, “Pyrazole-based sulfonamide and sulfamides as potent inhibitors of mammalian 15-lipoxygenase” (Bioorg Med Chem Lett, 2011).

Data set [1] has as its target T1, Polyunsaturated fatty acid lipoxygenase ALOX15 (Homo sapiens) (UniProt P16050).
T1 sequence (whole entry): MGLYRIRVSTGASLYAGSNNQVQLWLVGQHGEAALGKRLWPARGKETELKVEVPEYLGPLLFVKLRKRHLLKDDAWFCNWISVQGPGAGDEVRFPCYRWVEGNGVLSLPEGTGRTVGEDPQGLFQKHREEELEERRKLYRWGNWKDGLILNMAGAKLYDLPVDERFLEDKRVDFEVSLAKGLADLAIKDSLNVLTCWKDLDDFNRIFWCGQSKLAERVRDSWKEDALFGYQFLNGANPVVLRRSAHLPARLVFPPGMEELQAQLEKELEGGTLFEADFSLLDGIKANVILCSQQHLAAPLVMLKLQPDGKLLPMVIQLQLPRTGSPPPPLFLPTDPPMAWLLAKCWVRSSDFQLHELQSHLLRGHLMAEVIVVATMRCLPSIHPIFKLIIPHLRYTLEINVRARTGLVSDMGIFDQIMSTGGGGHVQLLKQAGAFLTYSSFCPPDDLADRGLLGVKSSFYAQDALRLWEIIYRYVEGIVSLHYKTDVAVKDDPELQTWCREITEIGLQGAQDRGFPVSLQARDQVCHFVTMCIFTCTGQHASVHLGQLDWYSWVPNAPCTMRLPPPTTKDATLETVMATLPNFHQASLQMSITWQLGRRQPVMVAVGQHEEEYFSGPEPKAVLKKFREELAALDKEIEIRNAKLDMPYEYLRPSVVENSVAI
The experiment in a line: Inhibition of human 15-LO expressed in CHO cells at 3 uM by cell-based assay.

Data set [2] is described as follows: Aqueous solubility of the compound in water at pH 6.5.
Data set [3] addresses T2, Polyunsaturated fatty acid lipoxygenase ALOX15 (Oryctolagus cuniculus, UniProt P12530).
T2 sequence (P12530 whole entry): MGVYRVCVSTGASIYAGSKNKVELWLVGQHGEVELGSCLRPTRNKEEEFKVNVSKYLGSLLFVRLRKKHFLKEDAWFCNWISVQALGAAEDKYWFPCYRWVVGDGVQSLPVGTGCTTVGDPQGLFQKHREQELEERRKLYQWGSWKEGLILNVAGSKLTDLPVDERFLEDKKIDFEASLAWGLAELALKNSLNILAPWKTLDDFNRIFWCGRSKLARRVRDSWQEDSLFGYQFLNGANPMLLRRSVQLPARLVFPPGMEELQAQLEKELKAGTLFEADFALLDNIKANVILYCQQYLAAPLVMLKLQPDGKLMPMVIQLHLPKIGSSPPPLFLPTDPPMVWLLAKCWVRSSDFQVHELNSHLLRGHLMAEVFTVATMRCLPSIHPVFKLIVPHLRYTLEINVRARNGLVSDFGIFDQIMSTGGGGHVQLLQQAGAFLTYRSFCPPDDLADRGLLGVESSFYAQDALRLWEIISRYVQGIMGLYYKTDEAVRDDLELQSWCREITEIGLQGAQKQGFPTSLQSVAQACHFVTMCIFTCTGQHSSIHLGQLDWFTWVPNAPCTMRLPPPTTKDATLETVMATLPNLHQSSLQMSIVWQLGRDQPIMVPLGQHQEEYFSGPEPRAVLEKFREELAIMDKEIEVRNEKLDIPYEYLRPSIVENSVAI
The experiment in a line: Inhibition of rabbit 15-LO using arachidonic acid by standard colorimetric assay.

The species entered for data set [4] is Oryctolagus cuniculus. Put plainly: Inhibition of 15-HETE production in New Zealand White rabbit whole blood at 10 uM by RP-HPLC. It is filed as functional.
Data set [5] addresses T3, Polyunsaturated fatty acid 5-lipoxygenase (Homo sapiens) (UniProt P09917).
T3 sequence (whole entry): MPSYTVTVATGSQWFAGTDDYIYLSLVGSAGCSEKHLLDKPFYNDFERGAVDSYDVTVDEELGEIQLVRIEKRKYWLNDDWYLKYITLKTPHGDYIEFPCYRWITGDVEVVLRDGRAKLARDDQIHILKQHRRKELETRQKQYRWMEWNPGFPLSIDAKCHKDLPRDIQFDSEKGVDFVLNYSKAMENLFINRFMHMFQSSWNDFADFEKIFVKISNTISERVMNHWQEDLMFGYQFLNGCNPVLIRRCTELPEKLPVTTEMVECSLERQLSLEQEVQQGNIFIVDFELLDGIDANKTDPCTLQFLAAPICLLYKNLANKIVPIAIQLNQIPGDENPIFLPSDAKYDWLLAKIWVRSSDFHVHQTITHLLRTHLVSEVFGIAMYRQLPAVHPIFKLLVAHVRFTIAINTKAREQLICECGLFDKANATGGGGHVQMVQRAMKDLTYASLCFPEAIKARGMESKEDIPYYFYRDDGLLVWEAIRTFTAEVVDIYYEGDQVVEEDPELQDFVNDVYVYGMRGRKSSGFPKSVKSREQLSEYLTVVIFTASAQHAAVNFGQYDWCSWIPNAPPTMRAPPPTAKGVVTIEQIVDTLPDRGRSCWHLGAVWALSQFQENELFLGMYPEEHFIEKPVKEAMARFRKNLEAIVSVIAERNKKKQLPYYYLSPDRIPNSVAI
The experiment in a line: Inhibition of 5-LO at 10 uM.

In data set [6] the target is T2, Polyunsaturated fatty acid lipoxygenase ALOX15. Put plainly: Inhibition of rabbit 15-LO using linoleic acid by standard colorimetric assay.
The target in data set [7] is T4, Polyunsaturated fatty acid lipoxygenase ALOX12 (Homo sapiens) (UniProt P18054).
T4 sequence (whole entry): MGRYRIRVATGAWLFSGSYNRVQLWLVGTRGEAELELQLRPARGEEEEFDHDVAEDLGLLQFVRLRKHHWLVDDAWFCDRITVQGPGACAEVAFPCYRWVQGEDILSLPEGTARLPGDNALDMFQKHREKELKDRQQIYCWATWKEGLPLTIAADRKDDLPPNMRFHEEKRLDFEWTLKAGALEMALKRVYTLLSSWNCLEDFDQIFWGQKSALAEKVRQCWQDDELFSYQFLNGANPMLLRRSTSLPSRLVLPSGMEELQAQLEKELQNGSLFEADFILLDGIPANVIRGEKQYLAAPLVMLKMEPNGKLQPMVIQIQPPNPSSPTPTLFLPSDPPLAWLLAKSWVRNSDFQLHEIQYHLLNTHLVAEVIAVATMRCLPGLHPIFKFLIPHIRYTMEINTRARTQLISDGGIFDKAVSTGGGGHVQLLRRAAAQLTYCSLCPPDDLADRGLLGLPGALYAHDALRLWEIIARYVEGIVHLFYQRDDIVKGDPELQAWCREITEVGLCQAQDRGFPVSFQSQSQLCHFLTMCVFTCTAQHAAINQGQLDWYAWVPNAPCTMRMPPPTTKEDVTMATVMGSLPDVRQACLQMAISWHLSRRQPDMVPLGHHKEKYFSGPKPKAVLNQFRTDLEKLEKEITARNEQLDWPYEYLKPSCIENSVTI
Put plainly: Inhibition of 12-LO at 10 uM.

The species entered for data set [8] is Oryctolagus cuniculus. Put plainly: Inhibition of 15-HETE production in New Zealand White rabbit whole blood at 3 uM by RP-HPLC. In kind it is functional.
Data set [9] concerns the target T1, Polyunsaturated fatty acid lipoxygenase ALOX15 (Homo sapiens). The experiment in a line: Inhibition of human 15-LO expressed in CHO cells at 1 uM by cell-based assay.
The species entered for data set [10] is Oryctolagus cuniculus. Put plainly: Inhibition of 15-HETE production in New Zealand White rabbit whole blood at 1 uM by RP-HPLC. It is filed as functional.
The target in data set [11] is T5, Polyunsaturated fatty acid 5-lipoxygenase (Homo sapiens, UniProt P09917).
T5 sequence (P09917 whole entry): T3 sequence (whole entry)
The experiment in a line: Inhibition of 5-LO.

pIC50: −log10 of the molar value. Converted amounts (≈) assume the structure as drawn.

As for `CCN([C@@H]1CCN([C@H](C)c2ccccc2)C1)S(=O)(=O)NCCc1c(-c2cccs2)n[nH]c1-c1cnccn1`, the inhibition amounted to 61% in [1], 68% in data set [5] and 38% in data set [7]. The solubility in data set [2] was 71 µg/mL (≈ 129 µM). The pIC50 in data set [3] is 8.09; in data set [6], 8.28. At 10 µM the inhibition in the data set filed under Oryctolagus cuniculus [4] was 55%.
`CCCCCc1ccc(S(=O)(=O)NCCc2c(-c3ccc(OC)cc3)n[nH]c2CC(C)C)cc1` had a pIC50 in data set [6] of 6.52.
For `CCCCCc1ccc(S(=O)(=O)NCCc2c(-c3cccs3)n[nH]c2-c2ccccc2)cc1`, the negative logarithm of the IC50 (pIC50) was 7.55 in [3] and 7.96 in data set [6].
On to `CCCCCc1ccc(S(=O)(=O)NCCc2c(-c3cccs3)n[nH]c2-c2cnccn2)cc1`, for which the figures for the pIC50 in data set [3] and in data set [6] were 7.19 and 7.92, respectively.
Turning to `CN([C@@H]1CCN(Cc2ccccc2)C1)S(=O)(=O)NCCc1c(-c2cccs2)n[nH]c1-c1cnccn1`, the solubility in data set [2] amounted to 79 µg/mL (≈ 151 µM). Further, the pIC50 in data set [3] was 8.15; in [6], 8.52. This compound displayed an inhibition at 3 µM in the data set filed under Oryctolagus cuniculus [8] of 51%. Moreover, in data set [9], the inhibition stood at 81%.
`CCCCCc1ccc(S(=O)(=O)NCCc2c(-c3ccccc3OC)n[nH]c2-c2ccccc2)cc1`: in data set [6], the negative-log IC50 (pIC50) is 5.91.
Same read-out and setting: as for `CCCCCc1ccc(S(=O)(=O)NCCc2c(-c3ccc(OC)cc3)n[nH]c2C)cc1`, the figure is 5.40.
`CCCCCc1ccc(S(=O)(=O)NCCc2c(-c3ccccc3)n[nH]c2Cc2ccccc2)cc1`: the values for the negative-log IC50 (pIC50) in data set [3] and in data set [6] were 6.04 and 6.80, respectively.
In the same order, the values of `CCCCCc1ccc(S(=O)(=O)NCCc2c(-c3cccs3)n[nH]c2-c2cccc(OC)c2)cc1` are 7.28 and 8.05.
Turning to `Cc1cc(-c2[nH]nc(-c3cccs3)c2CCNS(=O)(=O)N(C)[C@@H]2CCN(Cc3ccccc3)C2)no1`, the negative logarithm of the IC50 (pIC50) in data set [3] was 7.82; in data set [6] it was 8.38. In the data set listed under Oryctolagus cuniculus [4], this compound registered an inhibition at 10 µM of 71%.
On to `CN([C@@H]1CCN(Cc2ccccc2)C1)S(=O)(=O)NCCc1c(-c2cccs2)n[nH]c1-c1ccccc1`, for which the pIC50 in data set [3] was 8.12; in [6] it was 8.44. In the data set listed under Oryctolagus cuniculus [4], this compound had an inhibition at 10 µM of 44%.
As for `CN([C@@H]1CCN(Cc2ccccc2)C1)S(=O)(=O)NCCc1c(-c2cccs2)n[nH]c1-c1cccs1`, the pIC50 in [3] is 8.15; in data set [6] it was 8.70. This compound also gave an inhibition at 3 µM in the data set filed under Oryctolagus cuniculus [8] of 40%. In addition, the inhibition in data set [9] turned out to be 79%.
Consider `CCCCCc1ccc(S(=O)(=O)NCCc2c(-c3ccccc3)n[nH]c2-c2ccc(OC)cc2)cc1`, for which the pIC50 is 5.81 in data set [3] and 6.82 in data set [6].
In turn, `CCCCCc1ccc(S(=O)(=O)NCCc2c(-c3cccs3)n[nH]c2-c2cccs2)cc1` yielded a solubility in data set [2] of 0.2 µg/mL (≈ 0.412 µM). For the same compound, the negative-log IC50 (pIC50) in [3] is 7.72; in data set [6] it was 8.40. Also, testing at 10 µM in the data set filed under Oryctolagus cuniculus [4] gave an inhibition of 25%. This compound registered an inhibition in data set [7] of 35%.
As to `CCN([C@@H]1CCN([C@@H](C)c2ccccc2)C1)S(=O)(=O)NCCc1c(-c2cccs2)n[nH]c1-c1cnccn1`, the figures for the inhibition in data set [1] and in [7] were 94% and 32%, respectively. In addition, in the data set filed under Oryctolagus cuniculus [10], the inhibition at 1 µM worked out at 39%. Besides, the pIC50 is 5.26 in [11], 8.62 in data set [3] and 8.74 in data set [6]. In data set [2], the concentration in solution (solubility) was 76 µg/mL (≈ 138 µM). The inhibition at 3 µM in the data set filed under Oryctolagus cuniculus [8] turned out to be 69%.
For `CCCCCc1ccc(S(=O)(=O)NCCc2c(-c3ccccc3)n[nH]c2-c2cccc(OC)c2)cc1`, the negative logarithm of the IC50 (pIC50) was 6.28 in [3] and 7.17 in data set [6].
Consider `CCN([C@@H]1CCN(C(C)(C)c2ccccc2)C1)S(=O)(=O)NCCc1c(-c2cccs2)n[nH]c1-c1cnccn1`, for which the inhibition in [1] was found to be 83%; in data set [5] it was 60%; in data set [7], 35%. This compound had a solubility in data set [2] of 71 µg/mL (≈ 125 µM). In addition, the pIC50 in data set [3] was 8.39; in [6], 8.57. Further, in the data set listed under Oryctolagus cuniculus [4], testing at 10 µM gave an inhibition of 63%.
Turning to `CCCCCc1ccc(S(=O)(=O)NCCc2c(-c3ccccc3)n[nH]c2-c2ccccc2)cc1`, the pIC50 in data set [3] was 6.50; in data set [6], 7.46.
`CCN([C@@H]1CCN(C(C)c2ccc(F)cc2)C1)S(=O)(=O)NCCc1c(-c2cccs2)n[nH]c1-c1cnccn1` (some centres undefined) gave an inhibition at 1 µM in the data set filed under Oryctolagus cuniculus [10] of 45%. The solubility in data set [2] was 129 µg/mL (≈ 226 µM). The compound also returned an inhibition at 3 µM in the data set filed under Oryctolagus cuniculus [8] of 73%. The compound also gave an inhibition in data set [7] of 16%.
`CCCCCc1ccc(S(=O)(=O)NCCc2c(-c3cccs3)n[nH]c2-c2cc(C)on2)cc1`: the pIC50 is 7.44 in [3] and 8.00 in [6].
On to `COc1cccc(-c2[nH]nc(-c3cccs3)c2CCNS(=O)(=O)N(C)[C@@H]2CCN(Cc3ccccc3)C2)c1`, for which the values for the pIC50 in data set [3] and in data set [6] were 8.37 and 8.82, respectively. In addition, 10 µM produced 43% inhibition in the data set listed under Oryctolagus cuniculus [4]. The inhibition in data set [9] came to 51%.

The inhibition is the relative decrease from the control value, in per cent. A low value points to little suppression. The solubility is how much of the substance goes into solution per volume. Usually pIC50 stands for −log10 of the IC50, conventionally taken in molar units. Higher therefore signals a small IC50.
